Structures can show the parent of a compound that is named as a salt. Where two headings read alike, the source gives them in different places.
Experiments:
[1] = test system: PI3Kγ; parameters: method as in S-inhibitor catalog; details: vendor brief description; ref S-inhibitor catalog; cited from earlier work
[2] = test system: Toxoplasma gondii RH-2F tachyzoites; experiment: microbe, parasite or virus in culture; details: 72 h
[3] = molecular target: muscarinic receptor; parameters: method as in S-inhibitor catalog; details: vendor brief description; ref S-inhibitor catalog; read-out: Kb, muscarinic receptor antagonist; cited from earlier work
[4] = test system: human DGAT-1; parameters: method as in S-inhibitor catalog; details: vendor brief description; ref S-inhibitor catalog; cited from earlier work
[5] = test system: mouse DGAT-1; parameters: method as in S-inhibitor catalog; details: vendor brief description; ref S-inhibitor catalog; cited from earlier work
[6] = molecular target: PKA; parameters: method as in S-inhibitor catalog; details: vendor brief description; ref S-inhibitor catalog; cited from earlier work
[7] = test system: fatty acid synthesis; parameters: method as in S-inhibitor catalog; details: vendor brief description; ref S-inhibitor catalog; cited from earlier work
[8] = test system: AMPK; details: read-out: EC50, AMPK activation; vendor brief description; ref S-inhibitor catalog; cited from earlier work
[9] = molecular target: HIV-1 gp120 / CD4 receptor; parameters: method as in S-inhibitor catalog; details: in virus; vendor brief description; ref S-inhibitor catalog; read-out: EC50, inhibition of binding of HIV-1 gp120 to CD4 receptor; cited from earlier work
[10] = test system: Akt2; parameters: method as in S-inhibitor catalog; details: vendor brief description; ref S-inhibitor catalog; cited from earlier work
[11] = test system: Chk1; parameters: method as in S-inhibitor catalog; details: vendor brief description; ref S-inhibitor catalog; cited from earlier work
[12] = test system: Pol I-driven transcription of rRNA; parameters: method as in S-inhibitor catalog; details: in HCT-116 cells; vendor brief description; ref S-inhibitor catalog; cited from earlier work
[13] = molecular target: hydroxymethylglutaryl coenzyme A reductase (HMGCR); parameters: method as in S-inhibitor catalog; details: vendor brief description; ref S-inhibitor catalog; cited from earlier work
[14] = test system: CDK1; parameters: method as in S-inhibitor catalog; details: vendor brief description; ref S-inhibitor catalog; cited from earlier work
[15] = test system: CDK4; parameters: method as in S-inhibitor catalog; details: vendor brief description; ref S-inhibitor catalog; cited from earlier work
[16] = test system: CDK6; parameters: method as in S-inhibitor catalog; details: vendor brief description; ref S-inhibitor catalog; cited from earlier work
[17] = test system: CDK7; parameters: method as in S-inhibitor catalog; details: vendor brief description; ref S-inhibitor catalog; cited from earlier work
[18] = test system: MEK2; parameters: method as in S-inhibitor catalog; details: vendor brief description; ref S-inhibitor catalog; cited from earlier work
[19] = in vitro; details: human, Host viability (%) mean
[20] = test system: IGF-1R; parameters: method as in S-inhibitor catalog; details: vendor brief description; ref S-inhibitor catalog; cited from earlier work
[21] = test system: ALK; details: read-out: IC50, ALK; vendor brief description; ref S-inhibitor catalog; cited from earlier work
[22] = molecular target: p110β; parameters: method as in S-inhibitor catalog; details: vendor brief description; ref S-inhibitor catalog; cited from earlier work
[23] = test system: LXRα/SRC1; parameters: method as in S-inhibitor catalog; details: vendor brief description; ref S-inhibitor catalog; read-out: EC50, LXRα/SRC1 LiSA; cited from earlier work
[24] = test system: LXRα-GAL4; parameters: method as in S-inhibitor catalog; details: vendor brief description; ref S-inhibitor catalog; cited from earlier work
[25] = test system: cancer cell lines; parameters: method as in S-inhibitor catalog; details: vendor brief description; ref S-inhibitor catalog; cited from earlier work
[26] = molecular target: 5-HT1D; parameters: method as in S-inhibitor catalog; details: vendor brief description; ref S-inhibitor catalog; cited from earlier work
[27] = molecular target: TGF-β receptor type II (TβRII); parameters: method as in S-inhibitor catalog; details: vendor brief description; ref S-inhibitor catalog; cited from earlier work
[28] = molecular target: Aβ40 production (γ-secretase); parameters: method as in S-inhibitor catalog; details: in human SH-SY5Y cells; vendor brief description; ref S-inhibitor catalog; read-out: IC50, reduction of Aβ40 production; cited from earlier work
[29] = test system: MDMX; parameters: method as in S-inhibitor catalog; details: vendor brief description; ref S-inhibitor catalog; read-out: IC50, MDMX suppression; cited from earlier work
[30] = test system: DNA-PK; parameters: method as in S-inhibitor catalog; details: vendor brief description; ref S-inhibitor catalog; cited from earlier work
[31] = test system: PI3K; parameters: method as in S-inhibitor catalog; details: vendor brief description; ref S-inhibitor catalog; cited from earlier work
[32] = molecular target: HSP90; parameters: method as in S-inhibitor catalog; details: vendor brief description; ref S-inhibitor catalog; cited from earlier work
[33] = test system: Her-2 degradation; parameters: method as in S-inhibitor catalog; details: vendor brief description; ref S-inhibitor catalog; cited from earlier work
[34] = test system: α7 nAChR; parameters: method as in S-inhibitor catalog; details: in α7*-expressing SH-EP1 cells; vendor brief description; ref S-inhibitor catalog; read-out: EC50, α7 nAChR positive allosteric modulation; cited from earlier work
[35] = test system: GPR40; parameters: method as in S-inhibitor catalog; details: vendor brief description; ref S-inhibitor catalog; read-out: EC50, GPR40 agonist; cited from earlier work
[36] = test system: JAK2; parameters: method as in S-inhibitor catalog; details: vendor brief description; ref S-inhibitor catalog; cited from earlier work
[37] = test system: Flt3; parameters: method as in S-inhibitor catalog; details: vendor brief description; ref S-inhibitor catalog; cited from earlier work
[38] = test system: Ret; parameters: method as in S-inhibitor catalog; details: vendor brief description; ref S-inhibitor catalog; cited from earlier work
[39] = test system: FAAH; parameters: method as in S-inhibitor catalog; details: vendor brief description; ref S-inhibitor catalog; cited from earlier work
[40] = molecular target: 5-HT Receptor; parameters: method as in S-inhibitor catalog; details: vendor brief description; ref S-inhibitor catalog; cited from earlier work
[41] = molecular target: farnesoid X receptor (FXR); parameters: method as in S-inhibitor catalog; details: vendor brief description; ref S-inhibitor catalog; read-out: EC50, FXR agonist; cited from earlier work
[42] = read-out: Parasite inhibition (%) mean, preliminary screen of compound library, mean

Structure (SMILES): O=C1NC(=O)C(=Cc2ccc(-c3ccc(F)cc3)o2)S1 (stereo in doubt) [CAY10505]
- IC50 [1]: 30 nM
- inhibition of growth at 5 µM [2, 42]: -7.4%

Structure (SMILES): CC(C)N(CC[C@H](c1ccccc1)c1cc(CO)ccc1O)C(C)C [5-hydroxymethyl tolterodine (PNU 200577)]
- Kb [3]: 0.84 nM
- inhibition of growth at 5 µM [2, 42]: -18.8%

Structure (SMILES): O=C(Nc1ccccc1)Nc1ccc(-c2ccc(C(=O)[C@@H]3CCC[C@@H]3C(=O)O)cc2)cc1 [A 922500]
- IC50 [4]: 7 nM
- IC50 [5]: 24 nM
- inhibition of growth at 5 µM [2, 42]: 2%

Structure (SMILES): Cc1n[nH]c2ccc(-c3cncc(OC[C@@H](N)Cc4ccccc4)c3)cc12 [A-674563]
- Ki [6]: 16 nM
- inhibition of growth at 5 µM [2, 42]: 67.7%

Structure (SMILES): N#Cc1c(O)c2c(-c3ccc(-c4ccccc4O)cc3)csc2[nH]c1=O [A-769662]
- IC50 [7]: 3200 nM
- inhibition of growth at 5 µM [2, 42]: -13.9%

Structure (SMILES): COc1cc[nH]c2ncc(C(=O)C(=O)N3CCN(C(=O)c4ccccc4)C[C@H]3C)c1-2 [BMS-806 (BMS 378806)]
- EC50 [9]: 0.85 to 26.5 nM
- inhibition of growth at 5 µM [2, 42]: 0.3%

Structure (SMILES): NC1(Cc2ccc(Cl)cc2)CCN(c2ncnc3[nH]ccc23)CC1 [CCT128930]
- inhibition of growth at 5 µM [2, 42]: -25.6%

Structure (SMILES): O=c1[nH]c2ccc(Cl)cc2c(N[C@@H]2CN3CCC2CC3)c1-c1nc2ccccc2[nH]1 [CHIR-124]
- IC50 [11]: 0.3 nM
- inhibition of growth at 5 µM [2, 42]: 0%

Structure (SMILES): Cc1cnc(CNC(=O)c2c(=O)c3ccc(N4CCCN(C)CC4)nc3n3c2sc2ccccc23)cn1 [CX-5461]
- IC50 [12]: 142 nM
- inhibition of growth at 5 µM [2, 42]: 2.5%

Structure (SMILES): CCC(C)(Oc1ccc(C2(c3ccc(OC(C)(CC)C(=O)O)cc3)CCCCC2)cc1)C(=O)O (centres unmarked) [Clinofibrate]
- IC50 [13]: 470000 nM
- inhibition of growth at 5 µM [2, 42]: 0.1%

Structure (SMILES): CN1CC[C@H](c2c(O)cc(O)c3c(=O)cc(-c4ccccc4Cl)oc23)[C@H](O)C1 [Flavopiridol (Alvocidib) HCl]
- IC50 [17]: 300 nM
- inhibition of growth at 5 µM [2, 42]: 6.4%

Structure (SMILES): CC(=O)Nc1cccc(-n2c(=O)n(C3CC3)c(=O)c3c(Nc4ccc(I)cc4F)n(C)c(=O)c(C)c32)c1 [GSK1120212 (Trametinib)]
- inhibition of growth at 5 µM [2, 42]: -8.7%

Structure (SMILES): CNC(=O)c1c(F)cccc1Nc1nc(Nc2cc3c(cc2OC)CCN3C(=O)CN(C)C)nc2[nH]ccc12 [GSK1838705A]
- viability at 72 h [19]: 72.8%
- IC50 [20]: 2 nM
- IC50 [21]: 0.5 nM
- inhibition of growth at 5 µM [2, 42]: 70.9%

Structure (SMILES): COc1ncc(-c2ccc3nccc(-c4ccnnc4)c3c2)cc1NS(=O)(=O)c1ccc(F)cc1F [GSK2126458]
- inhibition of growth at 5 µM [2, 42]: 21.3%

Structure (SMILES): O=C(O)Cc1cccc(OCCCN(Cc2cccc(C(F)(F)F)c2Cl)CC(c2ccccc2)c2ccccc2)c1 [GW3965 HCl]
- EC50 [23]: 125 nM
- EC50 [24]: 190 nM
- inhibition of growth at 5 µM [2, 42]: -20.1%

Structure (SMILES): O=C(Cc1ccc(-c2ccc(OCCN3CCOCC3)cc2)cn1)NCc1ccccc1 [KX2-391]
- GI50 [25]: 9 to 60 nM
- inhibition of growth at 5 µM [2, 42]: 7.6%

Structure (SMILES): CC1(C)C(=O)N(CCN2CCC(C(=O)c3ccc(F)cc3)CC2)c2ccccc21 [LY310762]
- Ki [26]: ~200 nM
- inhibition of growth at 5 µM [2, 42]: 1.5%

Structure (SMILES): c1ccc(-c2nn3c(c2-c2ccnc4cc(OCCN5CCOCC5)ccc24)CCC3)nc1 [LY2109761]
- Ki [27]: 300 nM
- inhibition of growth at 5 µM ([2]; read-out: Parasite inhibition (%) mean): 46.7%

Structure (SMILES): O=C(O)CC[C@H]1CC[C@@](c2cc(F)ccc2F)(S(=O)(=O)c2ccc(Cl)cc2)CC1 [MK-0752]
- IC50 [28]: 5 nM
- inhibition of growth at 5 µM [2, 42]: 7.5%

Structure (SMILES): CN1CCN(c2ccc([N+](=O)[O-])c3no[n+]([O-])c23)CC1 [NSC-207895 (XI-006)]
- IC50 [29]: 2500 nM
- inhibition of growth at 5 µM [2, 42]: 0.2%

Structure (SMILES): O=c1cc(N2CCOCC2)oc2c(-c3cccc4c3sc3ccccc34)cccc12 [NU7441 (KU-57788)]
- IC50 [30]: 14 nM
- IC50 [31]: 5000 nM
- inhibition of growth at 5 µM [2, 42]: 21.5%

Structure (SMILES): CC1(C)CC(=O)c2c(C(F)(F)F)nn(-c3ccc(C(N)=O)c(N[C@H]4CC[C@H](OC(=O)CN)CC4)c3)c2C1 [PF-04929113 (SNX-5422)]
- Kd [32]: 41 nM
- IC50 [33]: 37 nM
- inhibition of growth at 5 µM [2, 42]: 4.6%

Structure (SMILES): COc1cc(OC)c(NC(=O)Nc2cc(C)on2)cc1Cl [PNU-120596]
- EC50 [34]: 216 nM
- inhibition of growth at 5 µM [2, 42]: -38.8%

Structure (SMILES): Cc1cc(OCCCS(C)(=O)=O)cc(C)c1-c1cccc(COc2ccc3c(c2)OC[C@H]3CC(=O)O)c1 [TAK-875]
- inhibition of growth at 5 µM [2, 42]: -10.4%

Structure (SMILES): Cc1cnc(Nc2ccc(N3CCN(C)CC3)cc2)nc1Nc1cccc(S(=O)(=O)NC(C)(C)C)c1 [TG101209]
- IC50 [36]: 6 nM
- IC50 [37]: 25 nM
- IC50 [38]: 17 nM
- inhibition of growth at 5 µM [2, 42]: -21.3%

Structure (SMILES): NC(=O)c1cccc(-c2cccc(OC(=O)NC3CCCCC3)c2)c1 [URB597]
- IC50 [39]: 4.6 nM
- inhibition of growth at 5 µM [2, 42]: 2.1%

Structure (SMILES): COc1ccccc1N1CCN(CCN(C(=O)C2CCCCC2)c2ccccn2)CC1 [WAY-100635 HCl]
- IC50 [40]: 0.95 nM
- inhibition of growth at 5 µM [2, 42]: -0.7%

Structure (SMILES): CC(C)OC(=O)C1=CN(C(=O)c2ccc(F)c(F)c2)CC(C)(C)c2c1[nH]c1ccccc21 [WAY-362450]
- EC50 [41]: 4 nM
- inhibition of growth at 5 µM [2, 42]: -2.1%

— PMC7216583 (Parasites & Vectors, 2020)
